Here are results for one molecule from patent US20080306019A1, “Dopamine Receptor Agonists in the Treatment and Prevention of Hiv-Induced Dementia” (priority 2005, published 2008).

Entries after “also recorded” stand apart in the source; their conditions may differ.

The subject of data set [1] is adult female Sprague-Dawley rats (ovariectomized). The data set is described as follows: Locomotor activity after intra-accumbal Tat and IV cocaine (Example 4). The format is in vivo, rat. The conditions noted are these: IV cocaine 3.0 mg/kg, saline intra-accumbal. The procedure:
Animals. […] Ovariectomy was also performed on all rats during the same surgical procedure.
Intra-accumbal TAT injection. A 2 treatment×2 drug, design was used. Thus, rats received bilateral injections of TAT or vehicle into the nucleus accumbens core and were subsequently administered an IV injection of cocaine (3.0 mg/kg/injection) or saline. Rats were administered intra-accumbal TAT or VEH injections according to methods previously described (Bansal et al., 2000). Briefly, 15 μg of Tat were injected bilaterally, using a Hamilton Syringe coated with Sigmacote, at the following coordinates: 1.8 mm anterior, ±1.6 mm lateral, and 7.0 mm ventral from bregma on the skull surface.
Locomotor activity. The activity monitors were 16-cm diameter, round open-field chambers (Flex-Field, San Diego Instruments, San Diego, Calif.) that detected free movement of animals by infrared photocell interruptions. This equipment used an infrared photocell grid (32 emitter/detector pairs) to measure total locomotor activity. […]
Drug Treatment. […] The dose of cocaine hydrochloride (3.0 mg/kg/day; Sigma, St. Louis, Mo.) was calculated on the weight of the salt and dissolved in saline for an injection volume of 1 ml/kg.

Data set [2] relates to ovariectomized female Sprague-Dawley rats. The data set is described as follows: IV cocaine-induced locomotor activity after intra-accumbal Tat (1-72) (Example 14). In kind it is in vivo, rat. To be noted: for mean total activity (±SEM): IV cocaine 3.0 mg/kg; for mean TIC (time in center): across days; for TIC, acute (Day 1): acute IV cocaine. The source says:
Animals: Sixty-four adult ovariectomized female, Sprague-Dawley rats (70 days old) were obtained from Harlan Laboratories, Inc. (Indianapolis, Ind.). All rats were surgically implanted with an Intracath IV catheter (22 ga, Becton/Dickinson General Medical Corp., Grand Prarie, Tex.), which was used as a SC, dorsally implanted port for chronic IV injections. The subcutaneous implantable access port for rats was developed and described by Mactutus et al. (1994). Ovariectomized rats were used because estrogen is protective against the neurotoxic effects of Tat (Wallace et al., 2006). Serial ovariectomy and indwelling jugular catheter surgeries occurred for all rats during the same procedure. Upon arrival at the animal care facilities, rats were placed in quarantine for 7 days, and then transferred to the colony. Animals were pair housed throughout the experiment and the catheters were flushed daily with 0.2 ml of heparinized (2.5%) saline. Rodent food (Pro-Lab Rat, Mouse Hamster Chow #3000) and water were provided ad lib. The colony was maintained at 21±2° C., 50%±10% relative humidity and a 12L: 12D cycle with lights on at 0700 h (EST).
Locomotor activity: Habituation: Rats in the vehicle-saline (VEH-SAL), Tat-saline (Tat-SAL), vehicle-cocaine (VEH-COC), and Tat-cocaine (TAT-COC) groups were habituated to the locomotor activity chambers for two 60-min sessions, one/day. Twenty four hours after the second habituation session, all rats were injected with IV saline and placed into the activity chambers for 30-min to measure baseline activity. The activity monitors were square (40×40 cm) open-field chambers (Hamilton-Kinder Inc., Poway, Calif.) that detected free movement of animals by infrared photocell interruptions. This equipment used an infrared photocell grid (32 emitter/detector pairs) to measure locomotor activity. The chambers were converted into round (˜40 cm diameter) compartments by adding clear Plexiglas inserts; photocell emitter/detector pairs were tuned by the manufacturer to handle the extra perspex width. Circular chambers increase the sensitivity to detect locomotor activity (Harrod et al., 2006). All activity monitors were located in an isolated room.
Intra-accumbal Tat microinjection: All rats received intra-accumbal Tat or vehicle (VEH; physiological saline) injections approximately 24 hours after the saline baseline activity session and then received subsequent IV injections of cocaine (3.0 mg/kg/injection) or saline according to a 2×2, protein×drug, design. […] Tat was therefore administered to the core region of the N Acc to determine if the sensitization process was disrupted. Rats were administered intra-accumbal Tat or VEH injections according to methods previously described (Bansal et al., 2000; Aksenov et al., 2003). Briefly, rats were anesthetized using a mixture of ketamine hydrochloride and xylazine by intraperatoneal (IP) injection (7.5 mg ketamine/100 gb.wt. […].). 15 μg/l of Tat was injected bilaterally, using a silanized Hamilton Syringe at the following coordinates: 1.8 mm anterior, ±1.6 mm lateral, and 7.0 mm ventral from bregma on the skull surface, over an interval of one minute, with a one minute tissue recovery period before withdrawal.
IV cocaine-induced locomotor activity: Twenty-four hours after rats received bilateral intra-accumbal injections, IV cocaine or saline was administered. The animals were immediately placed into locomotor activity chambers following cocaine or saline. The animals' locomotor activity response to cocaine was assessed for 30 minutes on only two occasions: immediately after the first (Day 1) and last (Day 14) cocaine injections; however, rats were administered daily IV cocaine or saline injections in the home cage on days 2-13. […]

For data set [3] the following is noted: cited from earlier work.
A further data set deals with rat hippocampal neurons. The data set is described as follows: Live/Dead (Calcein/Ethidium) viability of rat hippocampal neuronal cultures. The conditions noted are these: hydrochloride.
[4] abbreviates: repeated daily dosing in rat (Robinson et al. 1994).

`COC(=O)[C@H]1[C@@H](OC(=O)c2ccccc2)C[C@@H]2CC[C@H]1N2C.Cl` [cocaine, Cocaine hydrochloride]: the “centrally directed activity, cocaine” value in data set [1] is on record as “cocaine-induced increase in centrally directed activity”. For the same molecule, in data set [2] (14 days), the “total activity, repeated IV cocaine” value is “induced behavioral sensitization of total activity”. In data set [2] (10 minute), the “mean total activity (±SEM)” value is on record as 2363.0 (±120.0); the “mean TIC (time in center)” value is recorded as 116.6 (±12.4) seconds; the “TIC, acute (Day 1)” value is listed as 72.1 (±15.0) seconds. In addition, in data set [2] (20 minute), the “mean total activity (±SEM)” value is 1660.6 (±103.8); the “mean TIC (time in center)” value is recorded as 152.3 (±20.1) seconds; the “TIC, acute (Day 1)” value is given as 100.2 (±19.0) seconds. In addition, in data set [2] (30 minute), the “mean total activity (±SEM)” value is 1494.01 (±66.5); the “mean TIC (time in center)” value was 160.3 (±19.6) seconds; the “TIC, acute (Day 1)” value was 108.9 (±24.4) seconds. Further, the “total activity, acute cocaine (Day 1)” value in data set [2] (rat, in vivo) is “did not increase total activity”. For the same molecule, the “locomotor composite incidence scores, VEH-COC vs VEH-SAL” value in data set [2] (repeated (day 14) cocaine) is reported as “significantly higher locomotor composite incidence scores”. In data set [3] (3.0 mg/kg/injection IV (Booze et al. 1997)), the “time to peak arterial plasma levels” value is “within one-minute”. Also, the t1/2 in plasma in data set [3] (IV 3.0 mg/kg, rats (Booze et al., 1997)) was 12 to 13 min. In data set [3] (setting [4]), the “fetal brain levels of cocaine” value is 1750 ± 250 ng/mL and the “fetal plasma levels of cocaine” value is 500 ng/mL. For the same molecule, in the data set with rat hippocampal neurons (50 nM Tat + 1.5-1.6 μM cocaine, 48 hours), the “neuronal cell death / Tat toxicity, Tat + cocaine vs Tat alone” value was “significantly higher in cultures subjected to both Tat and cocaine; also recorded: enhanced Tat toxicity”. In the data set on rat hippocampal neurons (cocaine alone (0.1-10 μM; 1.5 μM)), the “toxicity / cell viability, cocaine alone” value was “No toxicity; also recorded: did not change cell viability”.
